Measurements taken from patent US20250161337A1, “IMMUNOSUPPRESSIVE COMPOSITION CONTAINING L-AHG” (Kyungpook National University Industry-Academic Cooperation …, priority 2022, published 2025).

Key:
Format in all cases: cell-based, mouse
[1] = test system: T cells activated with immobilized anti-CD3/anti-CD28; experiment: [3H]-thymidine incorporation (proliferation) of G0 T cells activated with immobilized anti-CD3/anti-CD28; conditions: for effect on [3H]thymidine incorporation of activated T cells: 25 to 400 μg/mL
Method: (§1) Isolation of resting (G0) T lymphocytes from spleens from 4-5-month-old C57BL/6J male mice was performed by a negative selection method from splenocytes using a T cell purification column kit (R&D Systems, Minneapolis, Minn., USA). At this time, the activation of G0 T cells was performed using a modification of the method of Kim et al., wherein pretreatment with rabbit anti-hamster IgG antibody (20 μg/mL) was performed so that the surface of the culture plastic container was smoothly coated with anti-CD3 (2.0 μg/mL) and anti-CD28 (2.0 μg/mL).
To evaluate the proliferation of T cells activated by immobilized anti-CD3/anti-CD28, 1×10^5 G0 T cells and each concentration of L-AHG together with 200 μL of RPMI 1640 complete medium were added to each well of a 96-well plate coated with anti-CD3 (2.0 μg/mL) and anti-CD28 (2.0 μg/mL), and activation of the cells was initiated by culture. At 29 hours after the activation, 0.25 μCi of [^3H]-thymidine was added to each well, and the amount of [^3H]-thymidine incorporated into the DNA of proliferating T cells was quantified by a liquid scintillation counter while the cells were further cultured for 12 hours.
First, using a 96-well plate, resting T cells (1×10^5 G0 T cells/well) were stimulated and activated with immobilized anti-CD3/anti-CD28 in the presence of various concentrations (0, 12.5, 25, 50, 100, 200, and 400 μg/mL) of L-AHG, NA2, NA4, or NA6. At 29 hours after the activation, 0.25 μCi of [^3H]thymidine was added to each well, followed by further culturing for an additional 12 hours. The amount of [^3H]thymidine incorporated into DNA following the T cell proliferation that occurred during this additional culturing time was quantified with a liquid scintillation counter, thereby determining the degree of T cell proliferation that occurred in each well.

[2] = test system: CD4 T cells; experiment: First cell cycle progression of activated resting CD4 T cells, nocodazole arrest, DAPI flow cytometry
Method: as §1
(§2) To analyze the cell cycle of T cells activated by immobilized anti-CD3/anti-CD28 or to analyze the cytokine concentration in the culture supernatant, 3×10^6 G0 T cells and each concentration of L-AHG together with 2 mL of RPMI 1640 complete medium were added to each well of a 35-mm plate coated with anti-CD3 (2.0 μg/mL) and anti-CD28 (2.0 μg/mL), and activation of the cells was initiated by culture. At 30 hours after the activation, the culture was stopped and the cells and the culture supernatant were recovered by centrifugation.
(§3) Under the same culture conditions, in order for the first cell cycle progression initiated by the activation of G0 T cells to be arrested in prometaphase by nocodazole treatment, T lymphocytes were activated for 20 hours, and then nocodazole was added thereto at a concentration of 0.2 μg/mL, followed by followed by further culturing for an additional 10 hours. After completion of the culturing, the culture was centrifuged to recover the cells and the culture supernatant.
(§4) Resting (G0) T cells isolated from mouse splenocytes using a T cell purification column kit (R & D) and T cells obtained by activating G0 T cells with immobilized anti-CD3/anti-CD28 for a given period of time were subjected to anti-CD3, anti-CD4, anti-CD8, and DAPI staining.
(§5) About 5×10^5 cells were suspended in 100 μL of 1×PBS/1% FBS solution, and then 0.5 μg of anti-CD3, 0.5 μg of anti-CD4, and 0.5 μg of anti-CD8 were added thereto and allowed to react at 4° C. for 15 minutes, followed by washing twice with 1×PBS/1% FBS solution. Subsequently, the cells were fixed with 1% paraformaldehyde solution at 4° C. for 15 minutes, and the fixed cells were washed twice with 1×PBS solution and then stained with 10 μM DAPI for 15 minutes. The stained cells were analyzed with an Attune NxT flow cytometer (Thermo Fisher Scientific, Waltham, MA, USA) to determine the proportions of CD3 T cells, CD4 T cells, and CD8 T cells and the cell cycle distribution based on the increase in blue fluorescence depending on the amount of DAPI bound to intracellular DNA.
To this end, resting T cells were stimulated and activated with immobilized anti-CD3/anti-CD28, and when these cells reached the time point at which S phase started following G0 exit and G1 entry and progression, that is, when 20 hours have elapsed after the activation, the microtubule depolymerization agent nocodazole (a cell cycle-arresting agent that arrests cell cycle progression of eukaryotic cells at the prometaphase of M phase) was added to the cells, followed by further culturing for 10 hours. Through this unique experimental method, the first cell cycle initiated following the activation of resting T cells was allowed to progress through the G1, S, and G2 phases, and then arrest in the prometaphase of M phase due to microtubule damage caused by the effect of nocodazole. Then, these cells were recovered, treated and stained with fluorescently labeled anti-CD4 antibody, fluorescently labeled anti-CD8 antibody, and the DNA fluorescent staining reagent DAPI, and analyzed with a flow cytometer. As a result, the present inventors investigated how the aspect of the first cell cycle progression (G1, S, and G2/M phases), which is initiated following the activation of resting CD4 T cells and resting CD8 T cells, is affected by L-AHG.

[3] = test system: CD8 T cells; experiment: First cell cycle progression of activated resting CD8 T cells, nocodazole arrest, DAPI flow cytometry
Method: as §1, §2, §3, §4, §5
To this end, resting T cells were stimulated and activated with immobilized anti-CD3/anti-CD28, and when these cells reached the time point at which S phase started following G0 exit and G1 entry and progression, that is, when 20 hours have elapsed after the activation, the microtubule depolymerization agent nocodazole (a cell cycle-arresting agent that arrests cell cycle progression of eukaryotic cells at the prometaphase of M phase) was added to the cells, followed by further culturing for 10 hours. […] Then, these cells were recovered, treated and stained with fluorescently labeled anti-CD4 antibody, fluorescently labeled anti-CD8 antibody, and the DNA fluorescent staining reagent DAPI, and analyzed with a flow cytometer. […]

[4] = test system: IFN-γ; experiment: IFN-γ in culture supernatant of activated T cells, ELISA; conditions: 30 h after activation
Method: as §2
(§6) After recovering the culture supernatant of T cells, the concentrations of IFN-γ, IL-2, IL-4 and IL-13 therein were analyzed using an ELISA kit (Mouse Uncoated Elisa Kit, Invitrogen) according to the manufacturer's instructions. […] The reaction was terminated by adding 100 μl of a reaction stop solution to each well, and the absorbances at wavelengths of 450 nm and 570 nm were measured with a Varioskan Lux Multimode Microplate Reader (Thermo Fisher Scientific). At this time, the value obtained by subtracting the absorbance measured at a wavelength of 570 nm from the absorbance measured at a wavelength of 450 nm was compared with a standard curve to determine the concentrations of cytokines present in the culture supernatant. […]

[5] = test system: IL-2; experiment: IL-2 in culture supernatant of activated T cells, ELISA; conditions: 25, 50, and 100 μg/mL; 30 h after activation
Method: as §2, §6

[6] = test system: IL-4; experiment: IL-4 in culture supernatant of activated T cells, ELISA; conditions: 30 h after activation
Method: as §2, §6

[7] = test system: IL-13; experiment: IL-13 in culture supernatant of activated T cells, ELISA; conditions: 25, 50, and 100 μg/mL; 30 h after activation
Method: as §2, §6

[8] = 100 μg/mL, 30 h after activation, nocodazole from 20 h

## O=C[C@@H](O)[C@@H]1OC[C@H](O)[C@H]1O [L-AHG, 3,6-anhydro-L-galactose]
[1]; 12.5 μg/ml, [3H]thymidine added 29 h after activation, 12 h further culture
  effect on the proliferation of activated T cells ([3H]thymidine incorporation): no significant effect
[1]; 100 μg/mL
  [3H]thymidine incorporation relative to untreated control group: about 22%
[1]
  effect on [3H]thymidine incorporation of activated T cells: inhibited [^3H]thymidine incorporation in a concentration-dependent manner
[1]; 200 to 400 μg/mL
  [3H]thymidine incorporation: significantly decreased to an unmeasurable level
[2]; [8]
  percentage of G1-phase CD4 T cells: 35.4%
  percentage of G2/M phase CD4 T cells: 8.8%
  percentage of S-phase CD4 T cells: 54.6%
[2]; 100 μg/ml, 30 h after activation, nocodazole from 20 h
  percentage of CD4 T cells remaining in the G1+S phase without entering G2/M: about 90.0%
[2]; 25-100 μg/mL
  apoptotic cell death (proportion of apoptotic sub-G1 cells) in CD4 T cells: not induced
[2]; 25 to 100 μg/ml, nocodazole from 20 h
  percentage of CD4 T cells remaining in G1 and S phases without entering G2/M: increased in a manner dependent on the concentration
[3]; [8]
  change in the percentage of G1-phase CD8 T cells: negligible
  percentage of G2/M CD8 T cells: 41.8%
  percentage of S-phase CD8 T cells: 46.6%
[3]; 25-100 μg/mL
  apoptotic cell death (proportion of apoptotic sub-G1 cells) in CD8 T cells: not induced
[3]; 25 to 50 μg/mL, nocodazole from 20 h
  cell cycle progression after activation of resting CD8 T cells: hardly affected
[4]; 25 μg/mL
  IFN-γ concentration in culture supernatant: hardly affected
[4]; 25, 50, and 100 μg/mL
  IFN-γ concentration in culture supernatant: significantly decreased
[5]
  IL-2 concentration in culture supernatant: significantly decreased
[6]; 25 μg/mL
  IL-4 concentration relative to untreated control group: 38.5%
[6]; 25, 50, and 100 μg/mL
  IL-4 concentration in culture supernatant: significantly decreased
[7]
  IL-13 concentration in culture supernatant: significantly decreased

## OC[C@H]1OC(O)[C@H](O)[C@@H](O[C@@H]2O[C@H]3CO[C@@H]([C@@H]2O)[C@@H]3O)[C@H]1O (stereo partly drawn) [NA2, neoagarobiose, reference compound]
[1]
  effect on [3H]thymidine incorporation of activated T cells: no significant effect

## OC[C@H]1O[C@@H](O)[C@H](O)[C@@H](O[C@@H]2O[C@H]3CO[C@@H]([C@@H]2O)[C@@H]3O[C@@H]2O[C@H](CO)[C@H](O)[C@H](O[C@@H]3O[C@H]4CO[C@@H]([C@@H]3O)[C@@H]4O)[C@H]2O)[C@H]1O [NA4, neoagarotetraose, reference compound]
[1]
  effect on [3H]thymidine incorporation of activated T cells: no significant effect

## OC[C@H]1O[C@@H](O)[C@H](O)[C@@H](O[C@@H]2O[C@H]3CO[C@@H]([C@@H]2O)[C@@H]3O[C@@H]2O[C@H](CO)[C@H](O)[C@H](O[C@@H]3O[C@H]4CO[C@@H]([C@@H]3O)[C@@H]4O[C@@H]3O[C@H](CO)[C@H](O)[C@H](O[C@@H]4O[C@H]5CO[C@@H]([C@@H]4O)[C@@H]5O)[C@H]3O)[C@H]2O)[C@H]1O [NA6, neoagarohexaose, reference compound]
[1]
  effect on [3H]thymidine incorporation of activated T cells: no significant effect
